Data taken from EP4678639A1, “SALT OF BENZIMIDAZOLE DERIVATIVE” (JW Pharmaceutical Corporation, priority 2023, dated 2024).
“Also recorded” adds a separate entry of the source. Where a name gives a salt, the structure may show the parent alone. Read-outs that look alike come from different tables or passages of the source.

Tests used:
[1] = Photostability test, visible light (1.2 Mlux·hr) exposure; settings: for Initial (%) Degradant / Initial (%) Total Related substances: Table 11, initial; for After (%) Degradant / After (%) Total Related substances: Table 11 under heading Visible Light (1.2 Mlux-hr) Exposure Test; for Change (%) Degradant: Table 11, after exposure vs initial; for Change in Quality (%) Light (Visible) Degradant: Table 12 summary
Description: (§1) A photostability comparative test was conducted on each of the above-mentioned prepared tegoprazan acid addition salts. The test was conducted by exposing the sample to light with an energy of 200 W hr/m^2 of ultraviolet light and 1.2 Mlux hr of visible light in accordance with The International Council for Harmonisation of Technical Requirements for Pharmaceuticals for Human Use (ICH) guideline, with the samples packaged in a single PE bag and spread thinly enough to ensure exposure to the light source, taking humidity stability into consideration. The purity of the acid addition salts and the change in the amount of degradants at the initial time point and after exposure to ultraviolet light or visible light were measured by HPLC.

[2] = Solid-state accelerated stability test (40 ± 2 °C/RH 75 ± 5 %); settings: for After 1 Month (%) Degradant / After 1 Month (%) Total Related substances / Change (%) Degradant: 40 ± 2 °C / RH 75 ± 5 %; for Change (%) Degradant: 1 month vs initial; for Initial (%) Total Related substances / Initial (%) Degradant: Table 7, initial; for Initial (%) Degradant: degradant of Formula 4; for Change in Quality (%) Accelerated (4 weeks) Purity / Change in Quality (%) Accelerated (4 weeks) Degradant: Table 12 summary
Description: (§2) Operation and Calculation: The blank solution, standard solution, and test solution were sequentially tested under the instrument operating conditions according to the liquid chromatography method in the General Test Methods of the 12th Edition of the Korean Pharmacopoeia, and the amount of related substances was calculated using the following equation. Amount of each related; substance (%) = (AT)/(AS) × (CS)/(CT) × (Molecular weight; of the sample)/(Molecular weight; of the standard; product) × P × (1)/(RR; F) [formula] AT = Area of each related substance peak obtained from the test solution AS = Area of the tegoprazan peak obtained from the standard solution CS = Concentration of standard solution (mg/mL) CT = Concentration of test solution (mg/mL) P = Purity/Assay/Potency (%) of standard product RRF = Relative response factor (1.0)
(§3) A solid-state stability comparative test was conducted on each of the above-mentioned prepared tegoprazan acid addition salts. The stability comparative test was conducted for 1 month under the conditions shown in Table 6 below in accordance with The International Council for Harmonisation of Technical Requirements for Pharmaceuticals for Human Use (ICH) guideline, and the purity of the acid addition salt, total related substances, and the content of degradants were measured by HPLC at the initial time point and after 1 month. Total related substances and degradants were measured according to the related substance test method (HPLC).

[3] = Solid-state stress stability test (humidity 90 % RH); settings: for Initial (%) Degradant / Initial (%) Total Related substances: Table 9, initial; for Remarks: state of the solid; for Change in Quality (%) 90 % RH (4 weeks) Degradant / Change in Quality (%) 90 % RH (4 weeks) Purity: Table 12 summary
Description: as §2, §3
3) Stress Stability (humidity 90 % RH)

[4] = Photostability test, ultraviolet light (200 W·hr/m2) exposure; settings: for After Ultraviolet Light Exposure (200 W hr/m2)(%) Degradant / After Ultraviolet Light Exposure (200 W hr/m2)(%) Total Related substances: Table 10, UV 200 W·hr/m2, PE bag; for Change (%) Degradant: Table 10, after UV exposure vs initial; for Initial (%) Degradant / Initial (%) Total Related substances: Table 10, initial
Description: as §1

[5] = Solid-state stress stability test (temperature 60 °C); settings: for total related substances increased after 1 month / After 1 Month (%) Degradant / After 1 Month (%) Total Related substances / change in appearance, change in the color of the solid / Change (%) Degradant / Remarks: 60 °C; for After 1 Month (%) Degradant / After 1 Month (%) Total Related substances / change in appearance, change in the color of the solid / Remarks: 1 month; for Change (%) Degradant: 1 month vs initial; for Remarks: appearance; for Initial (%) Degradant / Initial (%) Total Related substances: Table 8, initial; for Change in Quality (%) 60 °C (4 weeks) Purity / Change in Quality (%) 60 °C (4 weeks) Degradant: Table 12 summary
Description: as §2, §3
2) Stress Stability Test (temperature 60 °C)

[6] = Liquid stability comparative test (20 mg/mL in purified water, 40 °C, 24 hours, HPLC); format: physicochemical; settings: for After 24 hours Purity (%) / After 24 hours Degradant (%): 40 °C; for solid precipitation / solution state: stored at 40 °C for 24 hours
Description: The analysis conditions are as follows.
Each sample was dissolved in purified water to prepare a solution with a concentration of 20 mg/mL, stored at an external temperature of 40 °C, and analyzed by HPLC at the initial time point and after 24 hours to measure purity, and the change in the generated degradant (Formula 4) was measured. The analysis of total related substances and degradants was performed by taking a liquid from a solution prepared at a concentration of 20 mg/mL, diluting it to a concentration of 4 mg/mL with the diluent of the related substance test method (HPLC), and measuring it as a test solution, and analyzing it according to the related substance test method (HPLC).

[7] = 20 mg/mL in purified water, initial time point
[8] = degradant of Formula 4, 20 mg/mL in purified water

Molecule: Cc1nc2c(O[C@H]3CCOc4cc(F)cc(F)c43)cc(C(=O)N(C)C)cc2[nH]1 [Hydrobromide Salt]
- Remarks ([1]; Table 11, after exposure, appearance): Discolorat ion
- Initial (%) Degradant [1]: 1.972%
- Initial (%) Total Related substances [1]: 2.173%
- After (%) Degradant [1]: 1.956%
- After (%) Total Related substances [1]: 2.227%
- changes in appearance ([1]; visible light exposure): changes in appearance
- After 1 Month (%) Degradant [2]: 2.188%
- After 1 Month (%) Total Related substances [2]: 2.519%
- Change (%) Degradant [2]: 0.216%
- Initial (%) Total Related substances [2]: 2.173%
- Initial (%) Degradant [2]: 1.972%
- increase in total related substances after 1 month ([2]; accelerated stability): ≥ 0.3%
- After 1 Month (%) Degradant ([3]; 90 % RH, 1 month): 3.698%
- After 1 Month (%) Total Related substances ([3]; 90 % RH, 1 month): 3.922%
- Change (%) Degradant ([3]; 90 % RH, 1 month vs initial): 1.726%
- Initial (%) Degradant [3]: 1.972%
- Initial (%) Total Related substances [3]: 2.173%
- After Ultraviolet Light Exposure (200 W hr/m2)(%) Degradant [4]: 2.028%
- After Ultraviolet Light Exposure (200 W hr/m2)(%) Total Related substances [4]: 2.265%
- Change (%) Degradant [4]: 0.056%
- Initial (%) Degradant [4]: 1.972%
- Initial (%) Total Related substances [4]: 2.173%
- total related substances increased after 1 month [5]: ≥ 5.0%
- After 1 Month (%) Degradant [5]: 7.787%
- After 1 Month (%) Total Related substances [5]: 8.905%
- change in appearance, change in the color of the solid [5]: change in appearance
- Change (%) Degradant [5]: 5.815%
- Remarks [5]: Discolorat ion
- Initial (%) Degradant [5]: 1.972%
- Initial (%) Total Related substances [5]: 2.173%

Molecule: Cc1nc2c(O[C@H]3CCOc4cc(F)cc(F)c43)cc(C(=O)N(C)C)cc2[nH]1 [Hydrochloride Salt (Amorphous Form)]
- Initial (%) Total Related substances [1]: 0.207%
- After (%) Total Related substances [1]: 0.637%
- After 1 Month (%) Total Related substances [2]: 0.467%
- Initial (%) Total Related substances [2]: 0.207%
- Change in Quality (%) Accelerated (4 weeks) Purity [2]: -0.260%
- Amount of Change Degradant (%) [6]: 0.21%
- After 24 hours Purity (%) ([6]; 20 mg/mL in purified water): 99.69%
- Initial Purity (%) [6, 7]: 99.94%
- After 1 Month (%) Total Related substances ([3]; 90 % RH, 1 month): 0.335%
- change ([3]; 90 % RH, 1 month): ≤ 0.15%
- Initial (%) Total Related substances [3]: 0.207%
- After Ultraviolet Light Exposure (200 W hr/m2)(%) Total Related substances [4]: 0.313%
- Initial (%) Total Related substances [4]: 0.207%
- After 1 Month (%) Total Related substances [5]: 1.536%
- Initial (%) Total Related substances [5]: 0.207%
- Change in Quality (%) 60 °C (4 weeks) Purity [5]: -1.329%

Molecule: Cc1nc2c(O[C@H]3CCOc4cc(F)cc(F)c43)cc(C(=O)N(C)C)cc2[nH]1 [Malate Salt]
- Change (%) Degradant [1]: 0.031%
- Initial (%) Degradant [1]: 0.004%
- Initial (%) Total Related substances [1]: 0.146%
- After (%) Degradant [1]: 0.035%
- After (%) Total Related substances [1]: 0.263%
- Change in Quality (%) Light (Visible) Degradant [1]: 0.031%
- After 1 Month (%) Degradant [2]: 0.049%
- After 1 Month (%) Total Related substances [2]: 0.236%
- Change (%) Degradant [2]: 0.045%
- Initial (%) Total Related substances [2]: 0.146%
- Initial (%) Degradant [2]: 0.004%
- Change in Quality (%) Accelerated (4 weeks) Degradant [2]: 0.045%
- Change in Quality (%) Accelerated (4 weeks) Purity [2]: -0.090%
- purity change after 1 month ([2]; accelerated stability): ≤ 0.1%
- After 24 hours Purity (%) ([6]; 20 mg/mL in purified water): Solid precipitated
- Initial Purity (%) [6, 7]: 99.98%
- After 24 hours Degradant (%) [6, 8]: Solid precipitated
- solid precipitation / solution state [6]: solid precipitation; also recorded: solids were precipitated
- absorb moisture and deliquesce / melted ([3]; 90 % RH): absorb moisture and deliquesce; also recorded: melted
- Remarks ([3]; 90 % RH, 1 month): Melted
- Initial (%) Degradant [3]: 0.004%
- Initial (%) Total Related substances [3]: 0.146%
- Change in Quality (%) 90 % RH (4 weeks) Degradant [3]: Melted
- Change in Quality (%) 90 % RH (4 weeks) Purity [3]: Melted
- After Ultraviolet Light Exposure (200 W hr/m2)(%) Degradant [4]: 0.011%
- After Ultraviolet Light Exposure (200 W hr/m2)(%) Total Related substances [4]: 0.172%
- Change (%) Degradant [4]: 0.007%
- Initial (%) Degradant [4]: 0.004%
- Initial (%) Total Related substances [4]: 0.146%
- Change in Quality (%) Light (Ultraviolet) Degradant ([4]; Table 12 summary): 0.007%
- After 1 Month (%) Degradant [5]: 1.320%
- After 1 Month (%) Total Related substances [5]: 2.026%
- Change (%) Degradant [5]: 1.316%
- Initial (%) Degradant [5]: 0.004%
- Initial (%) Total Related substances [5]: 0.146%
- Change in Quality (%) 60 °C (4 weeks) Degradant [5]: 1.316%
- Change in Quality (%) 60 °C (4 weeks) Purity [5]: -1.880%

Molecule: Cc1nc2c(O[C@H]3CCOc4cc(F)cc(F)c43)cc(C(=O)N(C)C)cc2[nH]1 [Methanesulfonate Salt (Amorphous Form)]
- Change (%) Degradant [1]: 0.154%
- Initial (%) Degradant [1]: 0.284%
- Initial (%) Total Related substances [1]: 0.530%
- After (%) Degradant [1]: 0.438%
- After (%) Total Related substances [1]: 0.909%
- Change in Quality (%) Light (Visible) Degradant [1]: 0.154%
- After 1 Month (%) Degradant [2]: 1.124%
- After 1 Month (%) Total Related substances [2]: 1.653%
- Change (%) Degradant [2]: 0.840%
- Initial (%) Total Related substances [2]: 0.530%
- Initial (%) Degradant [2]: 0.284%
- Change in Quality (%) Accelerated (4 weeks) Degradant [2]: 0.840%
- Change in Quality (%) Accelerated (4 weeks) Purity [2]: -1.123%
- increase in total related substances after 1 month ([2]; accelerated stability): ≥ 0.3%
- After 24 hours Purity (%) ([6]; 20 mg/mL in purified water): 99.34%
- Initial Purity (%) [6, 7]: 99.90%
- After 24 hours Degradant (%) [6, 8]: 0.552%
- Initial Degradant (%) ([6]; degradant of Formula 4, 20 mg/mL in purified water, initial time point): 0.063%
- Amount of Change Degradant (%) ([6]; initial vs after 24 hours at 40 °C): 0.49%
- absorb moisture and deliquesce / melted ([3]; 90 % RH): absorb moisture and deliquesce
- Remarks ([3]; 90 % RH, 1 month): Melted
- Initial (%) Degradant [3]: 0.284%
- Initial (%) Total Related substances [3]: 0.530%
- Change in Quality (%) 90 % RH (4 weeks) Degradant [3]: Melted
- Change in Quality (%) 90 % RH (4 weeks) Purity [3]: Melted
- After Ultraviolet Light Exposure (200 W hr/m2)(%) Degradant [4]: 0.366%
- After Ultraviolet Light Exposure (200 W hr/m2)(%) Total Related substances [4]: 0.599%
- Change (%) Degradant [4]: 0.082%
- Initial (%) Degradant [4]: 0.284%
- Initial (%) Total Related substances [4]: 0.530%
- Change in Quality (%) Light (Ultraviolet) Degradant ([4]; Table 12 summary): 0.082%
- Change in Quality (%) Light (Ultraviolet) Purity ([4]; Table 12 summary): 0.069%
- total related substances increased after 1 month [5]: ≥ 5.0%
- After 1 Month (%) Degradant [5]: 9.245%
- After 1 Month (%) Total Related substances [5]: 12.245%
- change in appearance, change in the color of the solid [5]: change in appearance
- Change (%) Degradant [5]: 8.961%
- Remarks [5]: Discolorat ion
- Initial (%) Degradant [5]: 0.284%
- Initial (%) Total Related substances [5]: 0.530%
- Change in Quality (%) 60 °C (4 weeks) Degradant [5]: 8.961%

Molecule: maleate
- solid precipitation / solution state [6]: a solid precipitated
- absorb moisture and deliquesce / melted ([3]; 90 % RH): deliquesced
